Values joined by “and” are separate entries in the source; they are usually repeats but may differ in a detail not shown here. Equal entries are not always repeated.
Tests used:
[1] = plasma pharmacokinetics, Part A single ascending dose; format: in vivo, human (healthy male subjects)
Method: The study consisted of three parts. […] No stratification was performed.
Blood samples for PK analysis were taken at regular time-points up to approximately 96 h post-dose in Part A and C. During the study, a protocol amendment was approved to extend the PK sampling scheme to include samples up to approximately 144 h post-dose, starting from the fourth dosing period. The rationale for this amendment was a longer than anticipated terminal elimination half-life of SDI-118 as concluded from preliminary PK data of the first three dosing periods. Plasma concentrations of SDI-118 were assayed using a GLP validated UPLC/MS-MS method. This method is linear for a range of concentrations from 0.200 to 500 ng/ml, with a lower limit of quantification (LLOQ) of 0.200 ng/ml. The following PK parameters were estimated: maximum plasma concentration Cmax, time of maximum plasma concentration Tmax, area under the plasma concentration versus time curve AUC, AUC0-last (up to the last quantifiable concentration Clast), AUCinf (extrapolated to infinity), and apparent terminal elimination half-life t½. Dose proportionality of SDI-118 Cmax, AUC0-last, and AUCinf from Part A was calculated based on a mixed-effect power model. Food effect on SDI-118 Cmax, AUC0-last, and AUCinf from Part C was calculated using a 90% confidence interval (CI) on geometric mean ratios (fed/fasted) based on a mixed-effect analysis of variance (ANOVA) with median difference in Tmax with 90% CI. Major interaction was excluded if the 90% CI on AUC and Cmax ratios (fed/fasted) were within the 50%–200% boundaries. The food effect assessment in Part C was performed on a secondary population, i.e. the PK completers set, which excluded one subject who discontinued the study after one dosing period (cfr. infra).

SV2A = molecular target: T1, SV2A (Homo sapiens, UniProt Q7L0J3); assay: brain SV2A occupancy by [11C]-UCB-J PET and PK/PD Emax model, Part B; format: in vivo, human (healthy male subjects)
T1 construct: from tissue; host or cells: brain of healthy male subjects, in vivo
Method: In Part B target occupancy in the brain was measured by PET-scans (GE Signa) with the PET-ligand [^11C]-UCB-J ([Nabulsi et al., 2016]; [Koole et al., 2019]) at three different time points: pre-dose, around Tmax (estimated on data collected in Part A), and approximately 24 h post-dose. [^11C]-UCB-J was administered as an intravenous bolus into the antecubital vein over at least 15 s, followed by saline flush. An arterial line in the radial artery was placed in each subject to collect arterial blood samples to reconstruct a metabolite-corrected arterial plasma input function.
Dynamic PET scans were acquired in 3D list-mode for 90 min. List-mode data were rebinned into […] with a gradually increasing frame duration (6 × 15 s—3 × 30 s—3 × 60 s—2 × 90 s—2 × 3 min—9 × 5 min—3 × 10 min) and corrected for deadtime, randoms, and scatter. To correct for attenuation, a Zero-Echo Time (ZTE) scan was acquired simultaneously with the PET data to generate a subject-specific, MR-based attenuation map. Each frame was reconstructed with an iterative algorithm (OSEM—Ordered Subsets Expectation Maximization, four iterations, 28 subsets), modeling detector response, and using time of flight information (TOF). Each reconstructed frame consisted of 89 slices with a matrix size of 192 × 192, corresponding to an in-plane pixel size of 1.56 mm and a slice separation of 2.78 mm. Finally, smoothing was performed by applying a Gaussian filter (4.5 mm Full Width Half Maximum–FWHM) to each time frame.
SDI-118 SV2A occupancy was estimated globally using a full kinetic one-tissue compartmental modeling approach with an arterial input function (1TCM), and target occupancy was assessed with a Lassen plot using 13 main regions of interest: the overall cortex, the frontal, temporal, parietal and occipital cortex, the insula, the anterior and posterior cingulate cortex, the cerebellum, the striatum, the thalamus, the hippocampus, and the brainstem.
The PK/PD analysis set included all subjects from Part B with at least one available valid combined measurement of PK and PD, who received treatment and experienced no protocol deviations with relevant impact on PK or PD data. The global target occupancy based on the 1TCM method was analyzed as a function of the first PK concentration during the Tmax and 24-h post-dose scans. To estimate the relationship between the observed concentration at the beginning of the PET measurement and the receptor occupancy, a mixed-effect maximal effective concentration (Emax) model with two parameters Emax and half maximal effective concentration (EC50), with a random intercept was used. Parameter estimates, standard errors, and 95% confidence intervals were reported. Predictions from the model were reported with 95% confidence and prediction intervals to inform the required doses to produce these target occupancy values at Tmax and 24-h post-dose.

hERG = hERG (Homo sapiens, UniProt Q12809); assay: preclinical in vitro hERG inhibition; format: biochemical; conditions: preclinical in vitro studies
[2] = cardiovascular safety pharmacology study in dogs; format: in vivo
[3] = molecular target: human recombinant SV2A (hSV2A) (Homo sapiens, UniProt Q7L0J3); assay: in vitro radioligand binding study using human recombinant SV2A; conditions: read-out: half maximal inhibitory concentration (IC50)
From the text: ([Löscher et al., 2016]). […] ([Lynch et al., 2004]; [Matagne et al., 2008]).

[4] = set-up: species or system rats; conditions: rat, in vivo
[5] = Emax model excluding 22-h post-dose data of the 1 mg group

T1 sequence (Q7L0J3 whole entry): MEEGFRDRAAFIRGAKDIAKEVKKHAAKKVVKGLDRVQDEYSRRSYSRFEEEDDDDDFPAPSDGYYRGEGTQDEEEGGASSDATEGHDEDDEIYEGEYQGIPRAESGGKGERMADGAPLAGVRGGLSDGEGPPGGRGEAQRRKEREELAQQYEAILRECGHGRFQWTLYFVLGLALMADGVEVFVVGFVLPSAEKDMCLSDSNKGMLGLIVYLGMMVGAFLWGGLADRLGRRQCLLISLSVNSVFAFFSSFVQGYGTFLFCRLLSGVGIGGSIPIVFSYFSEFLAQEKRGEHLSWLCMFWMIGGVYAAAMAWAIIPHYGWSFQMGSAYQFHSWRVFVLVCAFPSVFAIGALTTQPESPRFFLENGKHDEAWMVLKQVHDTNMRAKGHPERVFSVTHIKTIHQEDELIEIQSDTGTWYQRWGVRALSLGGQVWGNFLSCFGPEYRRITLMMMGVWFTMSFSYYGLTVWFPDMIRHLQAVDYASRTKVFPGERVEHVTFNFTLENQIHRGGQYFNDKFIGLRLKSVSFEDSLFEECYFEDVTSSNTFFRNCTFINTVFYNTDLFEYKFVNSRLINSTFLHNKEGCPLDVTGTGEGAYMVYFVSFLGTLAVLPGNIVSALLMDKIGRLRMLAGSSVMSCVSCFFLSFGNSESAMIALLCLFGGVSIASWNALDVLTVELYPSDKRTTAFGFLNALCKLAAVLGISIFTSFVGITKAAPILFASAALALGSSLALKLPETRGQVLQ
Sequence of hERG (Q12809 whole entry): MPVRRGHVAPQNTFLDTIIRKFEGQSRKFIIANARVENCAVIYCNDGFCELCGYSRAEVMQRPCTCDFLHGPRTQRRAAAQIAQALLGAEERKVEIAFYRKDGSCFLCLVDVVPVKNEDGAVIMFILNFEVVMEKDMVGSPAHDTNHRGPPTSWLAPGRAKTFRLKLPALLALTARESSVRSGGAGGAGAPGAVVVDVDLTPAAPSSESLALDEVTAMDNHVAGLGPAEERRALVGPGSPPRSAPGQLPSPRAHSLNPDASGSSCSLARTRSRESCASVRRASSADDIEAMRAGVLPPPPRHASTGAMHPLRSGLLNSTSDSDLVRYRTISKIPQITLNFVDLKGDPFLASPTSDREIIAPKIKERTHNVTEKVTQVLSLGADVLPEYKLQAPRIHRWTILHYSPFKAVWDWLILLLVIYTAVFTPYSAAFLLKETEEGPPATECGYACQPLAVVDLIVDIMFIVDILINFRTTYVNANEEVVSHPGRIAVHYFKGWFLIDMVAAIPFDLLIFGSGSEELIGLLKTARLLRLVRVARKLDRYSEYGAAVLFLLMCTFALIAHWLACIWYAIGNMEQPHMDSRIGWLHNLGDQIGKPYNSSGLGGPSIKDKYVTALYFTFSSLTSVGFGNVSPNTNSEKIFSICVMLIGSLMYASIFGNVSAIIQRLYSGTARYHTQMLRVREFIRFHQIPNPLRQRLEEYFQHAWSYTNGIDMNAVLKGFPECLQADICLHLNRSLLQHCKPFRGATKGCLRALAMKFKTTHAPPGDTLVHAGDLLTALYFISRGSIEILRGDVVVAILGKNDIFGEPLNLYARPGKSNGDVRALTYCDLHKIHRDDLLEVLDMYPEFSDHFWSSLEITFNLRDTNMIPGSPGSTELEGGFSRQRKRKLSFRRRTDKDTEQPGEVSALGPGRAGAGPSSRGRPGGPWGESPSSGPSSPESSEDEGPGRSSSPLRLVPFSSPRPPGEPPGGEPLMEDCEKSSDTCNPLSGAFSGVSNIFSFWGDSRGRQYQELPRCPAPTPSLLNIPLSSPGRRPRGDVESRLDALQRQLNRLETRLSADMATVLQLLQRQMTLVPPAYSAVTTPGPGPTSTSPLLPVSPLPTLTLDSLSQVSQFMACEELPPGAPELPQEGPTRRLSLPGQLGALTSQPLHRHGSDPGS
Sequence of human recombinant SV2A (hSV2A) (Q7L0J3 whole entry): as the sequence (Q7L0J3 whole entry) above

O=C1C[C@H](c2cc(F)c(F)c(F)c2)CN1Cn1ncnc1Cl [SDI-118]
geometric mean AUCinf ([1]; 0.3 mg single oral dose): 120 ng·h/mL
geometric mean Cmax ([1]; 0.3 mg single oral dose): 3.42 ng/mL
geometric mean AUCinf ([1]; 80 mg single oral dose): 25,500 ng*h/mL
geometric mean Cmax ([1]; 80 mg single oral dose): 854 ng/mL
deviation from dose proportionality for Cmax ([1]; 0.3-80 mg, mixed-effect power model): approximately 5%
dose proportionality based on AUC0-last and AUCinf ([1]; entire dose range 0.3-80 mg): dose-proportional
median Tmax ([1]; oral capsule, fasting condition): 1.5 h
mean SV2A occupancy (SV2A; 1 mg oral, approximately 24 h after administration): ~0%
mean SV2A occupancy (SV2A; 1 mg oral, around Tmax (2 h post-dose), 1TC global method): 23%
mean SV2A occupancy (SV2A; 2 mg oral, approximately 24 h after administration): 20%
mean SV2A occupancy (SV2A; 2 mg oral, around Tmax, 1TC global method): 41%
predicted mean SV2A occupancy at trough level at steady state (SV2A; 10 mg once a day, model prediction): 76%
mean SV2A occupancy (SV2A; 10 mg oral, approximately 24 h after administration): 48%
mean SV2A occupancy (SV2A; 10 mg oral, around Tmax, 1TC global method): 69% and ~70%
mean SV2A occupancy (SV2A; 20 mg oral, approximately 24 h after administration): 61%
mean SV2A occupancy (SV2A; 20 mg oral, around Tmax, 1TC global method (peak occupancy)): 76%
mean plasma concentration (SV2A; 20 mg oral, around Tmax, Part B): 159 ± 20.5 ng/mL
occupancy as share of predicted maximum (SV2A; 80 mg dose, predicted): 96%
EC50 of SV2A occupancy (plasma concentration) (SV2A; [5]): 0.0282 µg/mL
Emax of SV2A occupancy (SV2A; [5]): 90.3%
plasma level predicted to render ~90% of maximal occupancy (SV2A; Figure 3): ~200 ng/mL
EC50 of plasma concentration-occupancy relationship (Figure 3) (SV2A; Tmax and 24 h post-dose, excluding 24 h data of 1 mg): around 25 ng/ml
EC90 of SV2A occupancy (concentration where 90% of the maximum effect is reached) (SV2A; mixed-effect Emax model): 0.245 µg/mL
EC50 of SV2A occupancy (plasma concentration) (SV2A; mixed-effect Emax model, all data, 95% CI 18.4 to 36.3 ng/ml): 0.0273 µg/mL
Emax of SV2A occupancy (SV2A; mixed-effect Emax model, all data, 95% CI 80.1%-98.4%): 89.2%
occupancy levels at which mild and transient side effects were seen in some individuals (SV2A; possible target related effect): > 60%
potential to inhibit hERG (hERG): low potential to inhibit hERG
findings in cardiovascular safety pharmacology study [2]: absence of any adverse findings
IC50 [3]: 13 nM
no observed adverse effect level (NOAEL) [4]: 150 mg/kg/day
